{"source": "ChEMBL document CHEMBL3393030", "about": "“Synthesis and properties of vitamin E analog-conjugated neomycin for delivery of RNAi drugs to liver cells” (Bioorg Med Chem Lett, 2015)", "key": {"[1]": {"assay": "Drug uptake in mouse HePa1-6 cells assessed as red signal with Cy3 conjugate compound", "type": "ADME, cell-based"}, "[2]": {"tested_on": "RH7777", "assay": "Induction of RNAi activity in rat McA-RH7777 cells by LDLR assay", "type": "cell-based"}, "[3]": {"assay": "Binding affinity to self-complementary RNA-12mer duplex (5'-rCGCGAAUUCGCG-3')2 (unknown origin) assessed as melting temperature by […] assay (reference value: 61 degC)", "details": "Homo sapiens; call rule not given here"}}}
{"smiles": "CCCCCCCCCCCCCCCCOC(COC[C@]1(C)CCc2c(C)c(O)c(C)c(C)c2O1)OCc1cn(CCCCCCCCCCCCCCCCSC[C@H]2O[C@@H](O[C@@H]3[C@@H](O)[C@H](N)C[C@H](N)[C@H]3O[C@H]3O[C@H](CN)[C@@H](O)[C@H](O)[C@H]3N)[C@H](O)[C@@H]2O[C@H]2O[C@@H](CN)[C@@H](O)[C@H](O)[C@H]2N)nn1", "note": "(stereo partly drawn)", "values": [{"measurement": "Drug uptake", "setting": "[1]", "value": "Active"}, {"measurement": "Activity", "setting": "[2]", "value": "Toxic"}, {"measurement": "Tm", "setting": "[3]", "value": 72.8, "unit": "°C"}]}
{"smiles": "NC[C@@H]1O[C@H](O[C@H]2[C@@H](O)[C@H](O[C@@H]3[C@@H](O)[C@H](N)C[C@H](N)[C@H]3O[C@H]3O[C@H](CN)[C@@H](O)[C@H](O)[C@H]3N)O[C@@H]2CO)[C@H](N)[C@@H](O)[C@@H]1O", "values": [{"measurement": "Tm", "setting": "[3]", "value": 64.2, "unit": "°C"}]}
{"smiles": "CCCCCCCCCCCCCCCCCC(=O)Oc1c(C)c(C)c2c(c1C)CC[C@@](C)(CCCCCCCCCOCc1cn(CCCCCCCCCCCCCCCCSC[C@H]3O[C@@H](O[C@@H]4[C@@H](O)[C@H](N)C[C@H](N)[C@H]4O[C@H]4O[C@H](CN)[C@@H](O)[C@H](O)[C@H]4N)[C@H](O)[C@@H]3O[C@H]3O[C@@H](CN)[C@@H](O)[C@H](O)[C@H]3N)nn1)O2", "values": [{"measurement": "Tm", "setting": "[3]", "value": 65.6, "unit": "°C"}]}
{"smiles": "CCCCCCCC/C=C/CCCCCCCC(=O)Oc1c(C)c(C)c2c(c1C)CC[C@@](C)(CCCCCCCCCOCc1cn(CCCCCCCCCCCCCCCCSC[C@H]3O[C@@H](O[C@@H]4[C@@H](O)[C@H](N)C[C@H](N)[C@H]4O[C@H]4O[C@H](CN)[C@@H](O)[C@H](O)[C@H]4N)[C@H](O)[C@@H]3O[C@H]3O[C@@H](CN)[C@@H](O)[C@H](O)[C@H]3N)nn1)O2", "values": [{"measurement": "Drug uptake", "setting": "[1]", "value": "Active"}, {"measurement": "Activity", "setting": "[2]", "value": "Toxic"}, {"measurement": "Tm", "setting": "[3]", "value": 66.8, "unit": "°C"}]}
